Assay results as given in patent US20190231745A1, “INHIBITORS OF T CELL RECEPTOR AND USES THEREOF” (Consejo Superior De Investigaciones Cientificas, priority 2017, published 2019).
pIC50: −log10 of the molar value. Structures can show the parent of a compound that is named as a salt.

Legend:
[1] = system: B8R-reactive CD8 T cells in immunized mice; details: 10 or 40 mg/kg daily, 7 days
[2] = system: human peripheral blood T cells stimulated with anti-CD3; test: Human blood T cell proliferation induced by anti-CD3 (CFSE dilution); assay type: cell-based
[3] = system: murine naïve spleen B cells; test: B cell proliferation (CellTrace Violet); assay type: cell-based, mouse
Protocol: (§1) FIG. 2. Target specificity of AX-024. […] The experiment was repeated three times. […] RUs, response units.
Proliferation was calculated according to the total number of cell divisions (by Cell-Trace Violet dilution).

[4] = molecular target: CD3ε PRS peptide binding to immobilized SH3.1(Nck1) domain (Homo sapiens, UniProt P16333); test: Surface plasmon resonance; details: SPR, maximum steady-state response units; read-out: IC50 for the inhibition of CD3ε peptide binding
Protocol: as §1
HBS-EP was used as the running buffer (10 mM HEPES [pH 7.4], 150 mM NaCl, 3 mM EDTA, 0.005% [v/v] Surfactant P20). Immobilization of the GST-Nck1(SH3.1) purified recombinant protein (final concentration 30 μg/ml) was performed by the amino coupling strategy using sodium acetate (10 mM) at pH 4.5 and 150 μL of a solution of EDC/NHS (v/v), with optimum immobilization achieved at approximately 5000 resonance units. For interaction experiments, increasing concentrations of the CD3ε peptide […] and AX-024 were used on the same chip. In all cases, the flow rate was […]. After each interaction, 2.5 M glycine (pH 2) was used to regenerate the surface, and the analyte response after regeneration was constant after repeated injections in all the experiments and within ±10% of the response following the first injection.

[5] = system: Nck recruitment to the TCR; test: Co-immunoprecipitation of endogenous Nck with the TCR; assay type: cell-based; details: human blood T cells stimulated with anti-CD3
Protocol: as §1
For co-immunoprecipitation analysis of endogenous Nck, a total of […] enriched human blood T-cells were pre-incubated in serum-free RPMI medium with compound AX-024 before stimulation with soluble OKT3 (10 μg/ml) for 1 minute at 37° C. Cells were lysed as above, and immunoprecipitation was performed with OKT3 and protein A Sepharose beads. The resulting immunoprecipitated extracts were resolved in a 10% acrylamide SDS-PAGE gel for immunoblotting with a rabbit anti-Nck antibody and reprobed with anti-CD3ζ serum.

[6] = system: intracellular F-actin in human blood T cells; test: TCR-triggered actin polymerization (phalloidin staining); assay type: cell-based; details: T-cell, read-out: IC50 of inhibition of the anti-CD3 elicited increase of intracellular F-actin
[7] = system: purified human blood T cells stimulated with anti-CD3; test: Microarray analysis of gene expression; assay type: cell-based; details: 1 nM, anti-CD3 4 hours, two donors
Protocol: RNA was extracted using the RNAeasy kit according to the manufacturer's instructions (QIAGEN 74134) and its integrity was assessed using an Agilent 2100 Bioanalyzer (Agilent). Labelling and hybridization were performed according to the protocols from Affymetrix. Briefly, 100 ng of total RNA were amplified and labelled using the WT Plus reagent kit (Affymetrix) and then hybridized to Human Gene 2.0 ST Array (Affymetrix). Washing and scanning were performed using the Affymetrix GeneChip System (GeneChip Hybridization Oven 645, GeneChip Fluidics Station 450 and GeneChip Scanner 7G).

CD-1 mice = test: Acute toxicity, single intraperitoneal injection; assay type: in vivo, mouse; details: single intraperitoneal injection 2.8, 14, 70, 350 mg/kg
Text: (§2) FIG. S7. Toxicity of AX-024 in mice and rats. (A) Effect of distinct single doses of AX024. HCl administered intraperitoneally on body weight gain of CD-1 mice over 14 days. The data represent the mean±s.e.m. (n=10 per group). (B) Effect of distinct single doses of AX024. HCl administered orally on body weight gain of Swiss albino mice over 14 days. The data represent the mean±s.e.m. (n=2 per group). (C) Effect of distinct single doses of AX-024. HCl administered per orally on body weight gain of Sprague Dawley rats over 14 days. The data represent the mean±s.e.m. (n=2 per group). (D) Summary of acute toxicological findings in different species and calculation of the human equivalent dose.
Acute toxicity: Eight-week-old CD-1 mice were injected intraperitoneally with different amounts of the hydrochloride salt of AX-024 (AX-024.HCl) dissolved in 0.5 ml of saline. All animals were observed clinically for the appearance of macroscopically visible adverse reactions twice daily over 14 days, as well as immediately after AX-024 administration. A necropsy was carried out on each animal on day 14, and the abdominal, thoracic, and cranial cavities were examined in situ, together with their associated organs.

Swiss albino mice = test: Toxicity after single oral dose, mice; assay type: in vivo, mouse
Text: as §2

Sprague Dawley rats = test: Toxicity after single oral dose, rats; assay type: in vivo
Text: as §2

[8] = system: thymocytes of 4 week-old C57BL/6 mice; test: Thymocyte differentiation in vivo; parameters: species or system mouse; details: administration for 10 days to 4-week-old mice
Protocol: FIG. S8. Effect of AX-024 on thymocyte differentiation. (A) Flow cytometry analysis of CD24 and TCR expression in thymocytes of 4 week-old C57BL/6 mice exposed to daily doses of oral AX-024 (10 mg/Kg and 40 mg/Kg) or to vehicle alone for 10 consecutive days. Both markers allowed the thymocytes to be divided into five subpopulations (a to e) that were reanalyzed according to CD4 and CD8 expression (right). The data below indicates the percentages of double negative (DN, CD4^− CD8^−), double positive (DP, CD4^+ CD8^+) and single positive (CDSP, CD4^+ CD8^−; CD8SP. CD4^− CD8^+) thymocytes within each a-to-e subpopulation. The data represent the mean±s.e.m. (n=6 mice per group). (B) Absolute cell number in the major thymic DN, DP, CD4SP, CD8SP subpopulations of mice analyzed in A. Numbers of pre- and post-beta selection (DN3 and DN4) and γδT cells are also indicated

[9] = system: EAE in MOG-immunized mice; test: EAE model, therapeutic treatment; assay type: in vivo, mouse; details: oral, therapeutic setting
ectromelia virus (ECTV) = details: mouse, in vivo

Row | Compound | activation of CD8 T cell response to the viral epitope (IFN-γ production) [1] | concentration at which inhibitory effects were shown ([2]; T cell proliferation, anti-CD3) | potency relative to the AX-000 hit in inhibition of TCR-triggered T cell proliferation ([2]; more potent than AX-000) | B cell proliferation induced by TLR4 agonist LPS ([3]; LPS) | B cell proliferation induced by anti-CD40 ([3]; anti-CD40) | BCR-triggered B cell proliferation ([3]; anti-IgM stimulation, concentrations as high as 10 μM) | pIC50 [4] | concentrations at which Nck recruitment to the TCR was inhibited (dose-dependent) [5] | pIC50 [6] | number of genes transcriptionally downregulated [7] | body weight gain (CD-1 mice; 14 days) | adverse reactions (CD-1 mice; followed 14 days) | single oral doses without any adverse effects on body weight, organ size or lesions (Swiss albino mice) | toxicity for rodents after single administration (Sprague Dawley rats; doses as high 1600 mg/kg) | single oral doses without any adverse effects on body weight, organ size or lesions (Sprague Dawley rats; rats, oral) | thymocyte subset numbers [8] | neurological score reached [9] | percentage of IFN-γ responding CD8 T cells upon ex vivo B8R stimulation (ectromelia virus (ECTV)) | survival of rechallenge with lethal dose 60 days later (ectromelia virus (ECTV)) | survival rates, first challenge (ectromelia virus (ECTV))
1 | COc1ccc2c(c1)C(c1ccc(F)cc1)=C(CN1CCCC1)CO2 [AX-024.HCl] | Neither dose of the drug significantly inhibited | – | – | – | – | – | – | – | – | – | – | – | – | – | – | – | – | – | – | –
2 | COc1ccc2c(c1)C(c1ccc(F)cc1)=C(CN1CCCC1)CO2 [AX-024] | – | ≤ 1 pM | > 10,000 fold | not inhibited | not inhibited | not inhibited | ~9.00 | ≥ 1 nM | 9.00 | 1093 genes | all mice gained weight at a similar rate | no significant adverse reactions | ≤ 400 mg/kg | not toxic | ≤ 1600 mg/kg | did not have a significant impact | 0 | indistinguishable from that of the vehicle group | resisted the lethal dose, regardless of their AX-024 treatment history | did not influence survival rates
3 | CCCCCCCCc1ccc(CCC(N)(CO)CO)cc1 [fingolimod, reference compound] | – | – | – | – | – | – | – | – | – | – | – | – | – | – | – | – | 0 | – | – | –
